Laboratory results as given in article PMC6952396, “Structural basis for itraconazole-mediated NPC1 inhibition” (Nature Communications, 2020).
pIC50: −log10 of the molar value. Where “and” joins values, the source holds several entries; their conditions need not be identical. Identical values can stand only once.

Target: T1, NPC1 (Cricetulus griseus, UniProt Q9JLG3)
T1 construct: CHO-7 cells in the medium are deprived of cholesterol to induce the LDL receptors biosynthesis; endogenous in cells; host or cells: CHO-7 cells
T1 sequence (Q9JLG3 23-1277): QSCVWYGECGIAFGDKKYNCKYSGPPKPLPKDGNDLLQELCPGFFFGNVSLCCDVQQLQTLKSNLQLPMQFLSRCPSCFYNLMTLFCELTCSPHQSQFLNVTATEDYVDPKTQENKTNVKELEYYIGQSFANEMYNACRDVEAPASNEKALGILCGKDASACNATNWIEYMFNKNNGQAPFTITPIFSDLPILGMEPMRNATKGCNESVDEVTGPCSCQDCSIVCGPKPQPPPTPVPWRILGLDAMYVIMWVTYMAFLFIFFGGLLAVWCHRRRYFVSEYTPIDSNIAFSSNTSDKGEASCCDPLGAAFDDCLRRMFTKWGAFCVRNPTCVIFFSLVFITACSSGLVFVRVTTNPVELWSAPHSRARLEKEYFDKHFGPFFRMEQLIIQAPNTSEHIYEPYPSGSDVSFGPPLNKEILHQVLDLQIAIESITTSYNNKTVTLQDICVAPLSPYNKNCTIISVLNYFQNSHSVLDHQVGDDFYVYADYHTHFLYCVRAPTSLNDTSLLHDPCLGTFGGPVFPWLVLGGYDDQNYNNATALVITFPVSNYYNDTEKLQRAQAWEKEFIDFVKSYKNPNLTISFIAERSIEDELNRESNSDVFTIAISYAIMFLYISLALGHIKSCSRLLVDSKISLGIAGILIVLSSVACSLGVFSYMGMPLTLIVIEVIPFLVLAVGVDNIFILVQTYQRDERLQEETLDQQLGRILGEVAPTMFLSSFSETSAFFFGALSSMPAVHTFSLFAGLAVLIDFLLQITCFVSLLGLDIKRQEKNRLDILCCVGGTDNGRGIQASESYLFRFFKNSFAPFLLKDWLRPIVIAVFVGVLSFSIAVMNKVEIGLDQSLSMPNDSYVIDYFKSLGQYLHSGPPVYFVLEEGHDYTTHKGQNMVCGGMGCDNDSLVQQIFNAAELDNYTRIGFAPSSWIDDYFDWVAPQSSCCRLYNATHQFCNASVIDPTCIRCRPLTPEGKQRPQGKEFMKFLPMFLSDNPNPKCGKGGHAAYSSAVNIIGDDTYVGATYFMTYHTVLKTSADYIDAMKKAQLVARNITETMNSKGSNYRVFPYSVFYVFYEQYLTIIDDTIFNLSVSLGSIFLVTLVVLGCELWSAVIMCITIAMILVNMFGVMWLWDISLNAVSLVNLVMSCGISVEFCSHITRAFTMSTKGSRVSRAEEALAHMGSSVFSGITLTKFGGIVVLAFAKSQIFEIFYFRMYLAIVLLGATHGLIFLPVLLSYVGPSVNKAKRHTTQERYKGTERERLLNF
Experiment: Cholesterol re-esterification (ACAT) assay measuring NPC1-mediated export of cholesterol from lysosomes in CHO-7 cells
Type: cell-based
Conditions: for cholesteryl [14C] oleate formed, Repeat 1 / cholesteryl [14C] oleate formed, Repeat 2: Fig. 2 source data; for cholesteryl [14C] oleate formed, Repeat 3 / cholesteryl [14C] oleate formed, Repeat 4: Supplementary Fig. 3 source data
How it was run: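 CHO-7 cells were sterol-deprived (5% LPDS, 50 µM compactin, 50 µM mevalonate), then given compounds with 10% FCS lipoproteins for 4 h at 37 °C and pulse-labeled 2 h with 0.1 mM [14C]oleate. Lipids were extracted, separated by TLC and cholesteryl [14C]oleate quantified by scintillation counting.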

CCC(C)n1ncn(-c2ccc(N3CCN(c4ccc(OCC5COC(Cn6cncn6)(c6ccc(Cl)cc6Cl)O5)cc4)CC3)cc2)c1=O (stereo not drawn) [Itraconazole mixture, itraconazole]
cholesteryl [14C] oleate formed, Repeat 1 (0.01 uM compound): 4.018 nanomoles formed per hour per milligram cell protein | cholesteryl [14C] oleate formed, Repeat 2 (0.01 uM compound): 4.2448 nanomoles formed per hour per milligram cell protein | cholesteryl [14C] oleate formed, Repeat 3 (0.01 uM compound): 4.59 nanomoles formed per hour per milligram cell protein | cholesteryl [14C] oleate formed, Repeat 4 (0.01 uM compound): 4.561 nanomoles formed per hour per milligram cell protein | cholesteryl [14C] oleate formed, Repeat 1 (0.03 uM compound): 5.241 nanomoles formed per hour per milligram cell protein | cholesteryl [14C] oleate formed, Repeat 2 (0.03 uM compound): 3.3234 nanomoles formed per hour per milligram cell protein | cholesteryl [14C] oleate formed, Repeat 3 (0.03 uM compound): 3.807 nanomoles formed per hour per milligram cell protein | cholesteryl [14C] oleate formed, Repeat 4 (0.03 uM compound): 5.72 nanomoles formed per hour per milligram cell protein | cholesteryl [14C] oleate formed, Repeat 1 (0.06 uM compound): 1.349 nanomoles formed per hour per milligram cell protein | cholesteryl [14C] oleate formed, Repeat 2 (0.06 uM compound): 2.23 nanomoles formed per hour per milligram cell protein | cholesteryl [14C] oleate formed, Repeat 3 (0.06 uM compound): 3.728 nanomoles formed per hour per milligram cell protein | cholesteryl [14C] oleate formed, Repeat 4 (0.06 uM compound): 1.926 nanomoles formed per hour per milligram cell protein | cholesteryl [14C] oleate formed, Repeat 1 (0.1 uM compound): 1.053 nanomoles formed per hour per milligram cell protein | cholesteryl [14C] oleate formed, Repeat 2 (0.1 uM compound): 0.9435 nanomoles formed per hour per milligram cell protein | cholesteryl [14C] oleate formed, Repeat 3 (0.1 uM compound): 1.321 nanomoles formed per hour per milligram cell protein | cholesteryl [14C] oleate formed, Repeat 4 (0.1 uM compound): 1.133 nanomoles formed per hour per milligram cell protein | cholesteryl [14C] oleate formed, Repeat 1 (0.3 uM compound): 0.3641 nanomoles formed per hour per milligram cell protein | cholesteryl [14C] oleate formed, Repeat 2 (0.3 uM compound): 0.3378 nanomoles formed per hour per milligram cell protein | cholesteryl [14C] oleate formed, Repeat 3 (0.3 uM compound): 0.05082 nanomoles formed per hour per milligram cell protein | cholesteryl [14C] oleate formed, Repeat 4 (0.3 uM compound): 0.1455 nanomoles formed per hour per milligram cell protein | pIC50 (IC50 (concentration at which each compound inhibited cholesterol esterification by 50%), 10% FCS, 4 h then 2 h [14C] oleate pulse): ~7.30 and 7.30
